Key:
[1] = tested on: T1, T. b. brucei 2T1 (parental wild type); experiment: microbe, parasite or virus in culture; design: species or system T. b. brucei 2T1 bloodstream form; Alamar blue (resazurin) viability of parental bloodstream-form trypanosomes, fluorescence; settings: Trypanosoma brucei, 72 h, read-out: 2T1-WT EC50 (μM)
T1 construct: 2T1, bloodstream form
Procedure: Drug sensitivities were assessed using a modified version of the alamar blue assay described previously. Briefly, test drugs were serially diluted in 100 μl of complete HMI‐11 media across two rows of a white 96-well plate (Greiner, Stonehouse, UK). Bloodstream‐form trypanosome cultures were diluted in HMI‐11, and 100 μl was added to all wells to give a final cell density of 1 × 10^5 trypanosomes/ml. Plates were incubated for 48 h at 37°C/5% CO2, prior to the addition of 20 μl of 5 mM resazurin sodium salt (Sigma‐Aldrich, Gillingham, UK) in PBS, pH7.4. Plates were incubated for a further 24 h in the same conditions, before fluorescence was measured using a FLUOstar Optima fluorimeter (BMG Labtech, Aylesbury, UK) with excitation and emission filters of 544 nm and 590 nm, respectively. […] All EC50 values were determined at least three times independently.

TbrPDEB1 = target: T2, TbrPDEB1 (Trypanosoma brucei, UniProt Q8WQX9); experiment: alamar blue growth assay of T. brucei TbrPDEB1/B2 double knockout dependent on this PDE; assay type: cell-based; settings: growth read-out of whole trypanosomes, not enzyme assay; HMI-11 medium, 37 °C, 48 h plus 24 h resazurin
T2 construct: gene PDEB1; full length, C-terminal 6Myc tag, expressed from rRNA locus in T. b. brucei 2T1 lacking endogenous TbrPDEB1/B2
Source text: alamar blue growth assay of T. brucei TbrPDEB1/B2 double knockout dependent on this PDE on TbrPDEB1

TbrPDEB2 = target: T3, TbrPDEB2 (Trypanosoma brucei, UniProt Q38F42); experiment: as above; assay type: cell-based; settings: growth read-out of whole trypanosomes, not enzyme assay; HMI-11 medium, 37 °C, 48 h plus 24 h resazurin
T3 construct: gene Tb09.160.3630; full length, C-terminal 6Myc tag, expressed from rRNA locus in T. b. brucei 2T1 lacking endogenous TbrPDEB1/B2
Source text: alamar blue growth assay of T. brucei TbrPDEB1/B2 double knockout dependent on this PDE on TbrPDEB2

SmPDE4A = target: T4, SmPDE4A (Schistosoma mansoni, UniProt A0ACM8RGL1); experiment: as above; assay type: cell-based, Trypanosoma brucei; settings: growth read-out of whole trypanosomes, not enzyme assay; HMI-11 medium, 37 °C, 48 h plus 24 h resazurin
T4 construct: gene PDE4A; full length 699 aa, codon-optimised, N-terminal first 70 aa of TbrPDEB1 as targeting tag, C-terminal GFP; expressed in T. b. brucei 2T1 lacking TbrPDEB1/B2
Source text: alamar blue growth assay of T. brucei TbrPDEB1/B2 double knockout dependent on this PDE on SmPDE4A

T3 sequence (Q38F42 entry or part of it): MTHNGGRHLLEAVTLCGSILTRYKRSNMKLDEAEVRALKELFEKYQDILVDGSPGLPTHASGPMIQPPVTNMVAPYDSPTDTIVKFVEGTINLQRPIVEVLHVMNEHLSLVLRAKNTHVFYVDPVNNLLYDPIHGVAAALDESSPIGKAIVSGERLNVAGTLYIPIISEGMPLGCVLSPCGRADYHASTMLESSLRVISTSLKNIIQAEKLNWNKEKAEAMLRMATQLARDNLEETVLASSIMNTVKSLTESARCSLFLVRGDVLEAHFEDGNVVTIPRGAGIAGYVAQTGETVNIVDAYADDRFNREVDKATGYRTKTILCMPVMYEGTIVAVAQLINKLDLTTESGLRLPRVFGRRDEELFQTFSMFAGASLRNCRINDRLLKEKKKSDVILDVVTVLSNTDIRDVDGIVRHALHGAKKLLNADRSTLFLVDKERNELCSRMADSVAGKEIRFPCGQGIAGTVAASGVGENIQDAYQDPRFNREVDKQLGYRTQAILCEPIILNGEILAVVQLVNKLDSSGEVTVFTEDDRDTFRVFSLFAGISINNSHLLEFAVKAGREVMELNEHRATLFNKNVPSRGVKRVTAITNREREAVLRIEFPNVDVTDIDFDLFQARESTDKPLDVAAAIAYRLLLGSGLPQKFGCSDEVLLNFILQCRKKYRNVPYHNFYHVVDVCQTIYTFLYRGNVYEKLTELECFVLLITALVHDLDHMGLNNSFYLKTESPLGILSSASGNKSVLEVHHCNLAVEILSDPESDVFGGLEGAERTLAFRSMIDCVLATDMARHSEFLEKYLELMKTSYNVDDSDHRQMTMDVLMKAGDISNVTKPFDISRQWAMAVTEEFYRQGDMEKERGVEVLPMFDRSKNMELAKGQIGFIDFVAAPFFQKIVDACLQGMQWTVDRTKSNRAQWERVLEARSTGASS
T2 sequence (Q8WQX9 entry or part of it): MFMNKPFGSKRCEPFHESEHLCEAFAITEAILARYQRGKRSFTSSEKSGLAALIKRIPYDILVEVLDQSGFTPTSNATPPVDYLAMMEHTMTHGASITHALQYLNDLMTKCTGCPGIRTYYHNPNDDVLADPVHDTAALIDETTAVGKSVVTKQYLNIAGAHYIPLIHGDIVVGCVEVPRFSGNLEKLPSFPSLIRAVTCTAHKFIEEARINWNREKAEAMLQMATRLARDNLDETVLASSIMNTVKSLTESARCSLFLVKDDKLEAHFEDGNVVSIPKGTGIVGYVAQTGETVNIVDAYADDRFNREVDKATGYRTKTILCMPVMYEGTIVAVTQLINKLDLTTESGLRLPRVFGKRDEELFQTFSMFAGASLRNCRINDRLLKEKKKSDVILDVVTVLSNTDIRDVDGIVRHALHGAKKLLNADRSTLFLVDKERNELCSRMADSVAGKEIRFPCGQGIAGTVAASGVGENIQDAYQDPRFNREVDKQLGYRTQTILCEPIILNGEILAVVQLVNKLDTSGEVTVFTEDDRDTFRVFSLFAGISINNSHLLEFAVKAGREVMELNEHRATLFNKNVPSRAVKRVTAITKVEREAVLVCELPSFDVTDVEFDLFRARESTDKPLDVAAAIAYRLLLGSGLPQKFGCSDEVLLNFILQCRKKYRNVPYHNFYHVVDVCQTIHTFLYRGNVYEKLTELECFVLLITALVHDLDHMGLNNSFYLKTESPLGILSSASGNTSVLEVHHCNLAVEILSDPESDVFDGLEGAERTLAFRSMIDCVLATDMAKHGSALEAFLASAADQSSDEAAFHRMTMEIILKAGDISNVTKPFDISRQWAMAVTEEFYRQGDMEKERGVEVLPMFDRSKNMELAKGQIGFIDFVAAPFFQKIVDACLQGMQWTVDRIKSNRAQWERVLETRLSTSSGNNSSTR

Compound	EC50 [1]	dKO+TbrPDEB1 EC50 (TbrPDEB1)	dKO+TbrPDEB2 EC50 (TbrPDEB2)	dKO+SmPDE4A / EC50 (SmPDE4A)
COc1ccc(C2=NN(C3CCN(C(=O)CN4C(=O)CC(C)(C)CC4=O)CC3)C(=O)[C@@H]3CC=CC[C@H]23)cc1OC [NPD-226]	0.16 ± 0.01 µM	290 ± 110 nM	82 ± 9 nM	40 ± 4 nM
N=C(N)c1ccc(OCCCCCOc2ccc(C(=N)N)cc2)cc1 [Pentamidine]	0.0012 ± 0.0002 µM	–	–	–
COc1cc2c(cc1OC)-c1cc(=Nc3c(C)cc(C)cc3C)n(C)c(=O)n1CC2 [Trequisin]	33.2 ± 0.9 µM	–	–	–
COc1ccc(C2=NN(C3CCCCCC3)C(=O)[C@@H]3CC=CC[C@H]23)cc1OCCCCOc1ccc(-c2nn[nH]n2)cc1 [NPD-001]	0.1 ± 0.015 µM	–	84 ± 18 nM	24 ± 3 nM

From publication PMC7430754, “Cloning and functional complementation of ten Schistosoma mansoni phosphodiesterases expressed in the mammalian host stages” (PLoS Neglected Tropical Diseases, 2020)
